Test results reported in patent US10240133B2, “ERK-derived peptides and uses thereof” (Yeda Research and Development Co. Ltd., priority 2013, dated 2019).
Entries after “also recorded” stand apart in the source; their conditions may differ.

Columns and labels:
[1] = test system: MDA-MB-231 xenograft; assay: Tumor xenograft growth; assay type: in vivo, CD-1 nude mice; settings: i.v. tail vein, 3 times a week
Experimental: (§1) FIGS. 6A-6B illustrate that the EPE peptide prevents the growth of human tumor xenografts. CD-1 nude mice were inoculated with MDA-MB-231, LOXIMVI and HCT-116 cells, and SKID mice were inoculated with A2352 cells. Upon tumors establishment, the mice were treated intravenously with the DMSO as well as EPE or Scr peptides in the indicated doses, 3 times a week. The results are averages of 5 mice in each experimental group. The X, Y, Z dimensions of the tumors were measured with a caliper, and the volume was calculated accordingly. The significance of all experiments was at least P<0.001. (B) The EPE peptide prevents tumor recurrence on melanoma xenograft. SCID mice were inoculated with A2352 cells. Upon establishment of tumors mice were treated intravenously with 15 mg/kg EPE peptide (n=7) or intraperitonealy with 15 mg/kg PLX4032 (n=5), at the indicated dose 3 times a week. Tumor size was recorded at the same time using a caliper. Following 3 weeks of treatment, mice were kept for further evaluation monitoring for any tumor recurrence of the effective treated melanoma xenografts. Experiment was concluded 110 days post inoculation (11 weeks after the last treatment) and the overall state of the animals was evaluated. sac=sacrificed, recur=recurrence, met=metastasis.
(§2) Tumor dimensions were measured with a digital sliding caliper.

[2] = test system: LOXIMVI xenograft; assay: Tumor xenograft growth; assay type: in vivo, CD-1 nude mice; settings: i.v. tail vein, 3 times a week
Experimental: as §1, §2

[3] = test system: HCT-116 xenograft; assay: Tumor xenograft growth; assay type: in vivo, CD-1 nude mice; settings: i.v. tail vein, 3 times a week
Experimental: as §1, §2

[4] = test system: AKT; assay: Western blotting of AKT phosphorylation; assay type: cell-based
Experimental: (A) EPE peptide prevents ERK1/2-importin7 interaction. HeLa cells were serum starved (0.1%, 16 hours), pretreated with EPE peptide, scrambled peptide (10 μM, 2 hours) or DMSO, and then stimulated with TPA (250 nM, 15 min). ERK1 were precipitated with αgERK1 Ab; importin7 co-immunoprecipitated with ERK1 was detected by WB with αimportin7 Ab. […] T47D, HeLa, MDA-MB-231 and A2352 cells were serum starved (0.1%, 16 hours), pretreated with EPE peptide, scrambled peptide (10 μM, 2 hours) or DMSO control, and then stimulated with TPA (250 nM, indicated times). Cell extracts were subjected to Western blot analysis with the indicated Abs. (C) EPE peptide inhibits phosphorylation of c-Myc and Elk1 in B-Raf melanomas. A2158 and A2352 cells were treated with scrambled and EPE peptide for two hours and then stimulated with the indicated concentration of TPA for 30 min. […] (D) Quantification of some of the results in B and C. […]
(i) Preparation of cellular extracts for Western Blotting: Cells were rinsed twice with ice-cold PBS and scraped into Radio-immunoprecipitation assay buffer (RIPA; 137 mM NaCl, 20 mM Tris (pH 7.4), 10% glycerol, 1% Triton X-100, 0.5% deoxycholate, 0.1% SDS, 2 mM EDTA, 1 mM PMSF, and 20 μM leupeptin). The extracts were centrifuged (20,000×g, 15 min, 4° C.), and the supernatants were further analyzed by Western blotting. […]

[5] = test system: ERK; assay: Immunohistochemistry of ERK localization in xenograft tumors; assay type: in vivo, mice; settings: MDA-MB-231 and LOXIMVI xenografts, anti ERK Ab
Excerpt: FIGS. 10A-10B illustrate that the EPE peptide causes cytoplasmatic localization of ERK in xenografts. FIG. 10A: Photographs illustrating that EPE and Scr peptide as well as DMSO-treated MDA-MB-231 and LOXIMVI xenografts were immunostained with αgERK Ab. FIG. 10B presents bar-graphs representing number of cells with cytoplasmatic/nuclear ERK staining calculated in 10 random microscopic fields.

[6] = test system: JNK2 and p38; assay: Nuclear translocation of other MAPKs (fluorescence microscopy); assay type: cell-based; settings: HeLa cells; TPA or anisomycin
Experimental: HeLa cells were serum-starved, pretreated with the EPE or Scr peptides, and then stimulated with either TPA (250 nM, 15 min), anisomycin (Anis, 10 μg/ml, 15 min) for the indicated times, or left untreated as control (NT). The cells were stained with αp38 or αgJNK Abs and DAPI. Scale bar—15 μm. (B) Extracts from cells treated as in A were analyzed by Western blotting with the indicated Abs.
Cells were fixed in 3% paraformaldehyde in PBS (20 min, 23° C.), and then permeabilized and blocked with 0.2% Triton X-100 in PBS-BSA (2%) for 20 min at 23° C. The fixed cells were sequentially incubated with appropriated Abs, (diluted in 10 μg/ml BSA/PBS) for 1 h, followed by either Cy-2 or rhodamine-conjugated secondary Abs and DAPI (diluted in BSA/PBS, 1:200) for 1 h. To follow the subcellular localization of the biotin-conjugated peptides, cells were incubated with Avidin-FITC (diluted in BSA/PBS 1:400) and DAPI. Slides were analyzed and photographed by a fluorescent microscope (Nikon, Japan, 600× magnification).

[7] = test system: low passage A2352 B-Raf melanoma xenograft; assay: Tumor xenograft growth; assay type: in vivo, SCID mice; settings: tail vein administration
Experimental: as §1, §2

Sequence: GQLNHILGILGEPEQED (Synthetic peptide (EPE)) [EPE peptide, NTS-derived peptide with phosphomimetic EPE motif]
- growth of tumor xenograft [1]: dose dependent inhibition of the growth
- growth of tumor xenograft [2]: dose dependent inhibition of the growth
- growth of tumor xenograft [3]: to some extent
- activation of AKT in resistant melanoma cells ([4]; data not shown): No significant effects
- basal or stimulated phosphorylation of AKT ([4]; shortly after stimulation or longer time periods after treatment): no effect on the basal or stimulated phosphorylation of AKT
- ERK localization in xenograft tumor sections [5]: localized almost exclusively in the cytoplasm
- translocation of other MAPKs (JNK2, p38) [6]: affected neither the translocation of other MAPKs; also recorded: does not affect the nuclear translocation of JNK2 and p38
- time to complete eradication of melanoma xenograft [7]: ≤ 2 weeks
